Experimental data: ChEMBL document CHEMBL3885881, “DrugMatrix”

Species on record: Rattus norvegicus
Experiment: DrugMatrix - Regimen: Daily Repeat
Assay type: toxicity, organism-based, Sprague-Dawley
Parameters: regimen Daily Repeat, gender Male, age 6-8 weeks
Conditions: in vivo, po, route oral GAVAGE, vehicle .5 % CMC; for ABSOLUTE BASOPHIL / ABSOLUTE EOSINOPHIL / ABSOLUTE LYMPHOCYTE / ABSOLUTE MONOCYTE / ABSOLUTE SEGMENTED NEUTROPHIL / BASOPHIL / EOSINOPHIL / ERYTHROCYTE COUNT / HEMATOCRIT / HEMOGLOBIN / LEUKOCYTE COUNT / LYMPHOCYTE / MEAN CORPUSCULAR HEMOGLOBIN / MEAN CORPUSCULAR HEMOGLOBIN CONCENTRATION / MEAN CORPUSCULAR VOLUME / MONOCYTE / NEUTROPHIL / NUCLEATED RED BLOOD CELLS / PLATELET COUNT: tissue Blood; for ALANINE AMINOTRANSFERASE / ALBUMIN / ALKALINE PHOSPHATASE / ASPARTATE AMINOTRANSFERASE / BLOOD UREA NITROGEN / CARBON DIOXIDE / CHLORIDE / CHOLESTEROL / CREATINE PHOSPHOKINASE / CREATININE / GLUCOSE / LACTATE DEHYDROGENASE / LIPASE / PHOSPHORUS / POTASSIUM / SODIUM / TOTAL BILIRUBIN / TOTAL PROTEIN / URIC ACID: tissue Plasma
[1] = 0 mg/kg, 72 h, dose level Control, time 3 day
[2] = 0 mg/kg, 120 h, dose level Control, time 5 day
[3] = 100 mg/kg, 72 h, dose level Low, time 3 day

For `Cl.NC[C@H]1CC[C@H](C(=O)Oc2ccc(CCC(=O)O)cc2)CC1` [CETRAXATE HYDROCHLORIDE], which “ABSOLUTE BASOPHIL” value [1] is on record?
The value was 0 CELLS/uL.

And the “ABSOLUTE EOSINOPHIL” value [1]?
Its value is 284.5 CELLS/uL.

What about the “ABSOLUTE LYMPHOCYTE” value [1] of the same compound?
The value was 11670.5 CELLS/uL.

And the “ABSOLUTE MONOCYTE” value [1]?
The value was 420.83 CELLS/uL.

And the “ABSOLUTE SEGMENTED NEUTROPHIL” value [1]?
The value was 1024.17 CELLS/uL.

And the BASOPHIL [1]?
The BASOPHIL was 0%.

And the EOSINOPHIL [1]?
The EOSINOPHIL was 1.67%.

And the “ERYTHROCYTE COUNT” value [1]?
The value was 5.38 x10E6/uL.

What about the HEMATOCRIT [1] of the same compound?
The HEMATOCRIT was 34.05%.

And the HEMOGLOBIN [1]?
Its HEMOGLOBIN is 12.75 G/DL.

And the “LEUKOCYTE COUNT” value [1]?
The value was 13.4 x10E3/uL.

And the LYMPHOCYTE [1]?
The LYMPHOCYTE was 88.33%.

What about the “MEAN CORPUSCULAR HEMOGLOBIN” value [1] of the same compound?
The value was 23.73 pg.

What about the “MEAN CORPUSCULAR HEMOGLOBIN CONCENTRATION” value [1] of the same compound?
The value was 37.43 G/DL.

What about the “MEAN CORPUSCULAR VOLUME” value [1] of the same compound?
Its value is 63.4 fL.

And the MONOCYTE [1]?
The MONOCYTE was 2.83%.

What about the NEUTROPHIL [1] of the same compound?
The NEUTROPHIL was 7.17%.

And the “NUCLEATED RED BLOOD CELLS” value [1]?
Its value is 0 /100WBC.

What about the “PLATELET COUNT” value [1] of the same compound?
The value was 1184.67 x10E3/uL.

What about the “ALANINE AMINOTRANSFERASE” value [1] of the same compound?
Its value is 45.33 u/L.

What about the ALBUMIN [1] of the same compound?
The ALBUMIN was 4.3 G/DL.

What about the “ALKALINE PHOSPHATASE” value [1] of the same compound?
The value was 388.83 u/L.

What about the “ASPARTATE AMINOTRANSFERASE” value [1] of the same compound?
The value was 84.83 u/L.

And the “BLOOD UREA NITROGEN” value [1]?
Its value is 15.5 mg/dL.

What about the “CARBON DIOXIDE” value [1] of the same compound?
Its value is 27 mmol/L.

What about the CHLORIDE [1] of the same compound?
Its CHLORIDE is 101.8 MEQ/L.

What about the CHOLESTEROL [1] of the same compound?
The CHOLESTEROL was 76.67 mg/dL.

What about the “CREATINE PHOSPHOKINASE” value [1] of the same compound?
Its value is 301 u/L.

And the CREATININE [1]?
Its CREATININE is 0.21 mg/dL.

And the GLUCOSE [1]?
The GLUCOSE was 168.83 mg/dL.

What about the “LACTATE DEHYDROGENASE” value [1] of the same compound?
The value was 294.83 u/L.

And the LIPASE [1]?
Its LIPASE is 9.8 u/L.

What about the PHOSPHORUS [1] of the same compound?
The PHOSPHORUS was 13.25 mg/dL.

And the POTASSIUM [1]?
Its POTASSIUM is 6.41 MEQ/L.

What about the SODIUM [1] of the same compound?
Its SODIUM is 143.72 MEQ/L.

And the “TOTAL BILIRUBIN” value [1]?
Its value is 0.22 mg/dL.

What about the “TOTAL PROTEIN” value [1] of the same compound?
The value was 5.98 G/DL.

And the “URIC ACID” value [1]?
Its value is 1.5 mg/dL.

What about the “ABSOLUTE BASOPHIL” value [2] of the same compound?
Its value is 0 CELLS/uL.

And the “ABSOLUTE EOSINOPHIL” value [2]?
The value was 190.67 CELLS/uL.

What about the “ABSOLUTE LYMPHOCYTE” value [2] of the same compound?
The value was 12549.5 CELLS/uL.

What about the “ABSOLUTE MONOCYTE” value [2] of the same compound?
The value was 276 CELLS/uL.

What about the “ABSOLUTE SEGMENTED NEUTROPHIL” value [2] of the same compound?
The value was 1067.17 CELLS/uL.

And the BASOPHIL [2]?
Its BASOPHIL is 0%.

And the EOSINOPHIL [2]?
Its EOSINOPHIL is 1.33%.

And the “ERYTHROCYTE COUNT” value [2]?
The value was 5.66 x10E6/uL.

And the HEMATOCRIT [2]?
The HEMATOCRIT was 35.92%.

What about the HEMOGLOBIN [2] of the same compound?
Its HEMOGLOBIN is 13.65 G/DL.

And the “LEUKOCYTE COUNT” value [2]?
The value was 14.08 x10E3/uL.

And the LYMPHOCYTE [2]?
The LYMPHOCYTE was 89%.

What about the “MEAN CORPUSCULAR HEMOGLOBIN” value [2] of the same compound?
Its value is 24.12 pg.

And the “MEAN CORPUSCULAR HEMOGLOBIN CONCENTRATION” value [2]?
The value was 38.03 G/DL.

What about the “MEAN CORPUSCULAR VOLUME” value [2] of the same compound?
The value was 63.47 fL.

And the MONOCYTE [2]?
The MONOCYTE was 2%.

What about the NEUTROPHIL [2] of the same compound?
Its NEUTROPHIL is 7.67%.

And the “NUCLEATED RED BLOOD CELLS” value [2]?
The value was 0.17 /100WBC.

What about the “PLATELET COUNT” value [2] of the same compound?
The value was 1251.67 x10E3/uL.

And the “ALANINE AMINOTRANSFERASE” value [2]?
Its value is 43.33 u/L.

What about the ALBUMIN [2] of the same compound?
Its ALBUMIN is 4.22 G/DL.

What about the “ALKALINE PHOSPHATASE” value [2] of the same compound?
Its value is 365.67 u/L.

What about the “ASPARTATE AMINOTRANSFERASE” value [2] of the same compound?
The value was 83.67 u/L.

And the “BLOOD UREA NITROGEN” value [2]?
The value was 18.17 mg/dL.

What about the “CARBON DIOXIDE” value [2] of the same compound?
Its value is 28.67 mmol/L.

What about the CHLORIDE [2] of the same compound?
Its CHLORIDE is 103.5 MEQ/L.

And the CHOLESTEROL [2]?
Its CHOLESTEROL is 71.5 mg/dL.

What about the “CREATINE PHOSPHOKINASE” value [2] of the same compound?
Its value is 284.5 u/L.

And the CREATININE [2]?
The CREATININE was 0.21 mg/dL.

And the GLUCOSE [2]?
The GLUCOSE was 161.67 mg/dL.

What about the “LACTATE DEHYDROGENASE” value [2] of the same compound?
Its value is 259.67 u/L.

What about the LIPASE [2] of the same compound?
Its LIPASE is 9.5 u/L.

What about the PHOSPHORUS [2] of the same compound?
The PHOSPHORUS was 12.45 mg/dL.

And the POTASSIUM [2]?
Its POTASSIUM is 6.49 MEQ/L.

What about the SODIUM [2] of the same compound?
Its SODIUM is 144.25 MEQ/L.

And the “TOTAL BILIRUBIN” value [2]?
Its value is 0.2 mg/dL.

What about the “TOTAL PROTEIN” value [2] of the same compound?
Its value is 6.1 G/DL.

What about the “URIC ACID” value [2] of the same compound?
The value was 1.73 mg/dL.

And the “ABSOLUTE BASOPHIL” value [3]?
The value was 0 CELLS/uL.

And the “ABSOLUTE EOSINOPHIL” value [3]?
The value was 0 CELLS/uL.

What about the “ABSOLUTE LYMPHOCYTE” value [3] of the same compound?
The value was 4748 CELLS/uL.

And the “ABSOLUTE MONOCYTE” value [3]?
The value was 119.67 CELLS/uL.

And the “ABSOLUTE SEGMENTED NEUTROPHIL” value [3]?
Its value is 265.67 CELLS/uL.

What about the BASOPHIL [3] of the same compound?
The BASOPHIL was 0%.

What about the EOSINOPHIL [3] of the same compound?
Its EOSINOPHIL is 0%.

And the “ERYTHROCYTE COUNT” value [3]?
Its value is 5.52 x10E6/uL.

What about the HEMATOCRIT [3] of the same compound?
The HEMATOCRIT was 36.1%.

What about the HEMOGLOBIN [3] of the same compound?
The HEMOGLOBIN was 13.33 G/DL.

What about the “LEUKOCYTE COUNT” value [3] of the same compound?
Its value is 5.13 x10E3/uL.

And the LYMPHOCYTE [3]?
Its LYMPHOCYTE is 92.67%.

What about the “MEAN CORPUSCULAR HEMOGLOBIN” value [3] of the same compound?
Its value is 24.2 pg.

What about the “MEAN CORPUSCULAR HEMOGLOBIN CONCENTRATION” value [3] of the same compound?
The value was 36.97 G/DL.

And the “MEAN CORPUSCULAR VOLUME” value [3]?
Its value is 65.43 fL.

And the MONOCYTE [3]?
Its MONOCYTE is 2.33%.

What about the NEUTROPHIL [3] of the same compound?
Its NEUTROPHIL is 5%.

And the “NUCLEATED RED BLOOD CELLS” value [3]?
The value was 0 /100WBC.

What about the “PLATELET COUNT” value [3] of the same compound?
The value was 1331 x10E3/uL.

And the “ALANINE AMINOTRANSFERASE” value [3]?
Its value is 33.33 u/L.

What about the ALBUMIN [3] of the same compound?
The ALBUMIN was 4.63 G/DL.

And the “ALKALINE PHOSPHATASE” value [3]?
Its value is 363 u/L.

What about the “ASPARTATE AMINOTRANSFERASE” value [3] of the same compound?
Its value is 79 u/L.

What about the “BLOOD UREA NITROGEN” value [3] of the same compound?
The value was 15 mg/dL.

And the “CARBON DIOXIDE” value [3]?
The value was 25 mmol/L.

And the CHLORIDE [3]?
Its CHLORIDE is 104 MEQ/L.

What about the CHOLESTEROL [3] of the same compound?
Its CHOLESTEROL is 87.33 mg/dL.

And the “CREATINE PHOSPHOKINASE” value [3]?
Its value is 255.33 u/L.

And the CREATININE [3]?
Its CREATININE is 0.17 mg/dL.

And the GLUCOSE [3]?
Its GLUCOSE is 163.33 mg/dL.

What about the “LACTATE DEHYDROGENASE” value [3] of the same compound?
Its value is 159.67 u/L.

And the LIPASE [3]?
The LIPASE was 10 u/L.

What about the PHOSPHORUS [3] of the same compound?
The PHOSPHORUS was 12.2 mg/dL.

What about the POTASSIUM [3] of the same compound?
Its POTASSIUM is 6 MEQ/L.

What about the SODIUM [3] of the same compound?
The SODIUM was 147 MEQ/L.

What about the “TOTAL BILIRUBIN” value [3] of the same compound?
The value was 0.13 mg/dL.

What about the “TOTAL PROTEIN” value [3] of the same compound?
The value was 6.57 G/DL.

And the “URIC ACID” value [3]?
Its value is 1.6 mg/dL.
